Experimental data reported in PubChem BioAssay (NCI).
Several values for one entry are separate records, joined by “and”; a condition that tells them apart may be missing. Equal entries are not always repeated.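 Step 1: Grow cells in 96-well plates. Step 2: Expose to compound for 48 hours at 5 concentrations. Step 3: Interpolate endpoints linearly; if unreached, use highest concentration. Here, GI50 denotes the concentration required for 50% inhibition of growth. TGI: concentration producing complete growth inhibition.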

How the values were obtained:
Experiment in all cases: NCI anticancer screen, dose series, 48 h
786-0 renal = system: 786-0 renal
DLD-1 colon = system: DLD-1 colon
DMS 114 small cell lung = system: DMS 114 small cell lung
DMS 273 small cell lung = system: DMS 273 small cell lung
KM12 colon = system: KM12 colon
KM20L2 colon = system: KM20L2 colon
LXFL 529 NSCLC = system: LXFL 529 NSCLC
NCI-H522 lung = system: NCI-H522 lung
RXF-631 renal = system: RXF-631 renal
SNB-78 CNS = system: SNB-78 CNS
XF 498 CNS = system: XF 498 CNS
HOP-18 NSCLC = system: HOP-18 NSCLC
M19-MEL melanoma = system: M19-MEL melanoma
OVCAR-5 ovarian = system: OVCAR-5 ovarian
MDA-N = system: MDA-N

Row | Compound | TGI (786-0 renal) [µM] | TGI (DLD-1 colon) [µM] | TGI (DMS 114 small cell lung) [µM] | TGI (DMS 273 small cell lung) [µM] | TGI (KM12 colon) [µM] | TGI (KM20L2 colon) [µM] | TGI (LXFL 529 NSCLC) [µM] | TGI (NCI-H522 lung) [µM] | TGI (RXF-631 renal) [µM] | TGI (SNB-78 CNS) [µM] | TGI (XF 498 CNS) [µM] | TGI (HOP-18 NSCLC) [µM] | TGI (M19-MEL melanoma) [µM] | TGI (OVCAR-5 ovarian) | GI50 (MDA-N) [µM] | TGI (MDA-N)
1 | O=[N+]([O-])c1ccc(NC2OCC(O)C(O)C2O)cc1 (stereo not given) | > 100 | > 100 | > 100 | > 100 | > 100 | > 100 | > 100 | > 100 | > 100 | > 100 | > 100 | – | – | – | – | –
2 | NC(=O)N/N=C(\Cc1nc2ccc(C(=O)c3ccccc3)cc2[nH]c1=O)C(=O)Nc1ccc(Br)cc1 | > 100 | > 100 | > 100 | > 100 | > 100 | > 100 | > 100 | > 100 | – | > 100 | > 100 | > 100 | > 100 | > 100 µM | – | –
3 | O=c1ccc2ccccc2o1 | > 100 | > 100 | > 100 | – | > 100 | > 100 | > 100 | > 100 | – | > 100 | > 100 | > 100 | > 100 | > 100 µM | – | –
4 | Cc1cc(N(CCC#N)CCC#N)ccc1/C=C(\NC(=O)/C=C/c1ccccc1)NC(=O)Nc1ccc(Cl)cc1 | > 100 | > 100 | > 100 | > 100 | > 100 | – | > 100 | – | – | – | > 100 | – | > 100 | > 100 µM | – | –
5 | O=C(CSc1nnc(Cc2ccccc2)o1)Nc1ccc(Cl)cc1 | > 100 | > 100 | > 100 | > 100 | > 100 | > 100 | > 100 | > 100 | – | > 100 | – | > 100 | > 100 | > 100 µM | – | –
6 | CCSc1nc2sc(C)c(C)c2c(=O)n1-c1ccc(C(=O)O)cc1 | > 100 | > 100 | > 100 | – | > 100 | > 100 | – | 76.3 | – | > 100 | > 100 | 48.6 | > 100 | > 100 µM | – | –
7 | Cc1cc2c(c3oc(C(O)(CO)C4CO4)cc(=O)c13)C(=O)c1c(O)cccc1C2=O (stereo not given) | – | – | – | – | – | – | – | 0.00323 | > 100 | > 100 | – | 0.0358 | – | 0.00791 µM and 0.00328 µM and 0.0041 µM | 0.00375 | 0.00443 µM and 0.00515 µM
8 | CN(C)C(=O)CC(C(=O)O)c1c[nH]c2ccccc12 (stereo not given) | > 100 | > 100 | > 100 | > 100 | > 100 | > 100 | > 100 | > 100 | > 100 | – | – | – | > 100 | – | – | –
9 | CCOC(OCC)C(CC)[Se]c1ccccc1[N+](=O)[O-] (stereo not given) | > 46.7 | > 90.2 | – | 11.3 | 71.4 | 6.36 | > 100 | 4.45 | – | > 100 | > 49 | > 100 | > 100 | > 100 µM | – | > 100 µM
10 | C[n+]1c2ccccc2c(CNC(CCC(N)=O)C(=O)O)c2ccccc21 (stereo not given) | 3.22 | 1.83 | 2.04 | 4.44 | 9 | 12.3 | 2.26 | 3.18 | – | 25.7 | 3.81 | 11.8 | 7.91 | 18 µM | – | 10.5 µM
11 | C=CCN1C(=O)/C(=C/c2ccc(C)cc2)N=C1SC/C=C/C | > 100 | – | – | – | > 100 | – | – | > 100 | – | – | – | – | – | > 100 µM | – | > 100 µM
12 | O=C1CN(c2ccc(Cl)cc2)C(=O)CN1CCN1CC(=O)N(c2ccc(Cl)cc2)CC1=O | > 100 | – | – | – | > 100 | – | – | > 100 | – | – | – | – | – | > 100 µM | – | > 100 µM
13 | O=C1Oc2ccccc2C(=O)/C1=C/N1C(=O)/C(=C/c2ccc([N+](=O)[O-])cc2)SC1=S | > 100 | – | – | – | 52.3 | – | – | 70.1 | – | – | – | – | – | > 100 µM | – | 46.7 µM
14 | CN1N=C2c3ccccc3CC[C@H]2C1c1ccccc1 (stereo not given in full) | > 100 | > 100 | 70.8 | > 100 | > 100 | > 100 | > 100 | 94.3 | – | > 100 | – | > 100 | 66.1 | > 100 µM | – | –
15 | Cc1cc(C)c2c(n1)S(=O)(=O)N(CCCN1CCN(c3cccc(C(F)(F)F)c3)CC1)/C(=C(\O)c1ccccc1)C2=O | 16.5 | – | – | – | 27 | – | – | 88.9 | – | – | – | – | – | 39 µM | – | > 100 µM
16 | N#CC1C(=O)Nc2sc(C(=O)c3ccc(Br)cc3)c(N)c2C12CCCCC2 (stereo not given) | > 100 | – | – | – | 44.1 | – | – | 78.8 | – | – | – | – | – | > 100 µM | – | 55.4 µM
17 | NC1CC2C3CCC2C1C3=O (stereo not given) | > 100 | – | – | – | > 100 | – | – | > 100 | – | – | – | – | – | > 100 µM | – | > 100 µM
18 | CCc1cccc(C(C)C)c1NC(=O)C(=O)C(C(=O)C(=O)OC)c1nc2ccccc2[nH]c1=O (stereo not given) | > 100 | – | > 100 | > 100 | > 100 | > 100 | > 100 | > 100 | > 100 | > 100 | > 100 | > 100 | > 100 | > 100 µM | – | –
19 | N=c1c2c3n(c4c(=O)n(-c5ccccc5)c(=S)n(c(=O)n1-c1ccccc1)c24)CCCCC3 | > 100 | – | – | – | > 100 | – | – | > 100 | – | – | – | – | – | > 100 µM | – | > 100 µM
20 | Oc1[nH]c2ccccc2c1N=NC1=NCCCCN1 | > 100 | – | – | – | > 100 | – | – | > 100 | – | – | – | – | – | > 100 µM | – | > 100 µM
21 | COc1cc(/C=C2\N=C(c3ccccc3)N(C3Nc4cc5c(cc4S3)NC(N3C(=O)/C(=C/c4cc(OC)c(OC)c(OC)c4)N=C3c3ccccc3)S5)C2=O)cc(OC)c1OC (stereo not given) | > 100 | – | – | – | > 100 | – | – | > 100 | – | – | – | – | – | > 100 µM | – | > 100 µM
22 | CCOC(=O)CCC(C(=O)OCC)n1nc2ccc(Nc3c(C)[n+]([O-])c4cc(Cl)ccc4[n+]3[O-])cc2n1 (stereo not given) | > 100 | – | – | – | > 100 | – | – | > 100 | – | – | – | – | – | > 100 µM | – | > 100 µM
23 | CCN1/C(=C/c2ccc3ccccc3[n+]2CC)C=Cc2ccccc21 | 13.9 | – | – | – | 1.4 | – | – | 4.64 | – | – | – | – | – | 24.4 µM | – | 2.04 µM
24 | O=C(CCCCCCCCC(=O)NN1C(=O)/C(=C\c2ccc(O)c(O)c2)SC1c1c(O)ccc2ccccc12)NN1C(=O)C(=Cc2ccc(O)c(O)c2)SC1c1c(O)ccc2ccccc12 (stereo not given) | > 70 | – | – | – | > 100 | – | – | 30.7 | – | – | – | – | – | > 100 µM | – | > 100 µM
25 | CCC(=O)OCc1ccc2oc(=O)c(C(=O)Oc3cncc(Cl)c3)cc2c1 | > 100 | – | – | – | > 100 | – | – | > 100 | – | – | – | – | – | > 100 µM | – | > 100 µM
26 | CO/N=C1\CCC2(O)C3Cc4ccc(O)c5c4C2(CCN3CC2CC2)[C@H]1O5 (stereo not given in full) | > 100 | – | – | – | > 100 | – | – | > 100 | – | – | – | – | – | > 100 µM | – | > 100 µM
27 | COc1ccc(-c2cc(-c3ccc(Nc4ccnc5cc(C(F)(F)F)ccc45)cc3)[nH]c(=O)c2C#N)c2ccccc12 | > 100 | – | – | – | > 100 | – | – | > 100 | – | – | – | – | – | > 100 µM | – | > 52.9 µM
28 | Cc1cc(Cc2cc(C)c(NC(=O)C(=O)C3C(=O)NC(=S)NC3=O)c(C(C)C)c2)cc(C(C)C)c1NC(=O)C(=O)C1C(=O)NC(=S)NC1=O | > 100 | > 100 | > 100 | > 100 | > 100 | > 100 | > 100 | > 100 | > 100 | > 100 | – | > 100 | > 100 | > 100 µM | – | –
